Source: patent US11608318B2, “Solid state forms of Omecamtiv mecarbil and Omecamtiv mecarbil diHCl” (ASSIA CHEMICAL INDUSTRIES LTD., priority 2018, dated 2023)

Description: (§1) Pharmaceutical molecules may display solid to solid phase transformations and transformations between polymorphs; which may detected by exposure of the solid state form to stress conditions of e.g., high temperature and high relative humidity.
as §1

Malonic Omecamtiv mecarbil diHCl [form OCM-3]
thermodynamic and mechanical stability of the solid state form (polymorphic conversion): thermodynamically and mechanically stable
